Experimental data from BindingDB's records for PubMed 32916382 (Zhejiang University, 2020).

Tests used:
[1] = Inhibition of TNF-alpha (unknown origin) by ELISA assay
[2] = Inhibition of IL-6 (unknown origin) by ELISA assay

| IC50 [1] | IC50 [2] | SMILES |
| --- | --- | --- |
| 0.629 µM | 2 µM | CC(C)=CCN1Cc2cc(C)cc3[nH]c(=S)n(c23)CC1C (centres undefined) |
| 3.31 µM | 0.86 µM | CCOC(=O)C1=C(C)N=c2s/c(=C\c3ccc(N4CCOCC4)cc3)c(=O)n2C1c1ccccc1 (centres undefined) |
| 6.38 µM | 1.63 µM | CCCC[C@@H]1OC(=O)C2=CCCC[C@H]21 |

The remaining lines, values behind:

| SMILES | IC50 [1] | IC50 [2] |
| --- | --- | --- |
| COP(=O)(OC)Oc1ccc([N+](=O)[O-])cc1 | 0.89 µM | 0.56 µM |
| CCOP(=O)(OCC)SCCSCC | 1.16 µM | 0.6 µM |
| CCSCCSP(=O)(OC)OC | 20.6 µM | 13.8 µM |
| CC(C)=CCN1Cc2cc(Cl)c(Cl)c3nc(S)n(c23)C[C@@H]1C | 1.42 µM | 1.28 µM |
